In US20240309043A1, “THERAPEUTICALLY ACTIVE STEROIDAL DERIVATIVES” (Organon R&D Finland Ltd., priority 2017, published 2024):

Assays:
Type in all cases: biochemical
[1] = test system: HSD1 enzyme that is expressed in rabbit placenta tissue; experiment: Inhibition of E1 to E2 conversion in rabbit placenta tissue homogenate; conditions: inhibitor 100 nM, 30 nM estrone, 30 min
Protocol: The assay is based on an enzymatic reaction where HSD1 enzyme that is expressed in rabbit placenta tissue converts its natural substance estrone (E1) to estradiol (E2) in the presence of a co-factor β-NADPH.
Homogenization of rabbit placenta tissue: Weight a piece of the frozen tissue into a Precellys ck28 bead tube. Add buffer solution (20 mM KH2PO4 with 1 mM EDTA, pH 7,4) in 1:2 ratio (e.g. 300 mg of tissue:600 μl reaction buffer solution). Insert the bead tubes to homogenizer and homogenize 2×30 s. 6000 rpm. Centrifugated 5 min., 2600 rpm at +4° C. and collect supernatant. Aliquots of homogenate are stored in −80° C.
Assay—Inhibition of E1 to E2 conversion in rabbit placenta tissue: The reaction takes place in a buffer solution (20 mM KH2PO4 with 1 mM EDTA, pH 7,4), including appropriate amount of rabbit placenta homogenate, co-factor (1 mM β-NADPH), Substrate (30 nM estrone), labelled substrate as tracer (5 nM [^3H]-estrone). During a 30-minute incubation part of the estrone is converted to estradiol. The reaction is stopped by lowering the pH to 1 with 10% trichloro acetic acid (TCA). The substrate and conversion products are analyzed by HPLC and a Scintillation counter analyzer. Total radioactivity for estrone and estradiol were determined in each sample and percent conversion of estrone to estradiol was calculated according to the following formula:
Percent inhibition was calculated flowingly: % inhibition=100−% conversion.

[2] = molecular target: T1, recombinant human 17β-HSD2 (Homo sapiens, UniProt P37059); experiment: Inhibition of recombinant human 17β-HSD2; conditions: inhibitor 1 μM; 50 nM estradiol, 1 mM NADH, 30 min RT
T1 construct: made in house; host or cells: Sd9 (Sf9) insect cells, baculovirus (Bac to Bac Expression System)
T1 sequence (P37059 1-387): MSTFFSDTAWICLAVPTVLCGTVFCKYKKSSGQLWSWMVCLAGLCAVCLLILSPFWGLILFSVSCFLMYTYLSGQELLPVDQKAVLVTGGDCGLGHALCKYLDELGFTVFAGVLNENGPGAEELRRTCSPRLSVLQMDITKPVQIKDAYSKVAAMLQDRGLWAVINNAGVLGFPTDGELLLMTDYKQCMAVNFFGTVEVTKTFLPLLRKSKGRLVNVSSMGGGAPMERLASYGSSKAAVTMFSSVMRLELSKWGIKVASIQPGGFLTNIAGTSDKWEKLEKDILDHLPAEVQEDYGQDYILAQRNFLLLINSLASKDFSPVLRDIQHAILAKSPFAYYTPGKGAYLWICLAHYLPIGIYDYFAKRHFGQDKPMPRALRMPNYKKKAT
Protocol: 17β-HSD2 production and isolation: Similarly to 17β-HSD1 the Recombinant baculovirus was generated by the “Bac to Bac Expression System” (Invitrogen). Recombinant bacmid was transfected to Sd9 insect cells using “Cellfectin Reagent” (Invitrogen). 60 h later cells were harvested and supernatant were fractionated by the following protocol: • cells were dissolved into 40 ml of A-buffer (40 mM TRIS, pH 8.0, 20% glycerol, 20 μM NAD, 0.4 mM PMSF, 150 mM NaCl, 0.5% dodecyl-β-maltoside+protease inhibitor cocktail) • cells were sonicated • lysate was incubated on ice for 15 min • lysate was centrifuged 5000 rpm 15 min, +4° C. • centrifugation of the supernatant 180 000 g 30 min, +4° C. • pellet was dissolved into 8 ml of A-buffer • not resuspended material was removed by centrifugation 5000 rpm min, +4° C. • the clear supernatant was divided into 100 μl aliquots and were stored frozen until determination of enzymatic activity.
The amount of 17β-HSD2 was analysed by immunoblotting and total protein concentration of each extract batch was determined.
Assay—Inhibition of recombinant human 17β-HSD2: Recombinant protein (4 μg/ml) was incubated in 20 mM KH2PO4 pH 8.5 with 50 nM estradiol (including 800 000 cpm/ml of ^3H-estradiol) and 1 mM NADH for 30 min at RT, in the presence of the potential inhibitor at concentrations 1 μM or 0.1 μM. Inhibitor stock solutions were prepared in DMSO. Final concentration of DMSO was adjusted to 1% in all samples. The enzyme reaction was stopped by addition of 10% trichloroacetic acid (final concentration). Samples were centrifuged in a microtiter plate at 4000 rpm for 10 min. Supernatants were applied to reverse phase HPLC on a Waters Symmetry C18 column, equipped with a Waters Sentry Guard column. Isocratic HPLC runs were performed at RT at a flow rate of 1 ml/min in acetonitrile:water 48:52 as running solvent. Radioactivity was monitored in the eluate by a Scintillation Analyzer. Total radioactivity for estrone and estradiol were determined in each sample and percent conversion of estradiol to estrone was calculated according to the following formula:
(§1) [formula] Percent inhibition was calculated flowingly: % inhibition=100−% conversion

[3] = molecular target: T2, recombinant human 17β-HSD1 (Homo sapiens, UniProt P14061); experiment: Inhibition of recombinant human 17β-HSD1; conditions: inhibitor 100 nM; 30 nM estrone, 1 mM NADPH, 30 min RT
T2 construct: made in house; host or cells: Sd9 (Sf9) insect cells, baculovirus (Bac to Bac Expression System)
T2 sequence (P14061 1-328): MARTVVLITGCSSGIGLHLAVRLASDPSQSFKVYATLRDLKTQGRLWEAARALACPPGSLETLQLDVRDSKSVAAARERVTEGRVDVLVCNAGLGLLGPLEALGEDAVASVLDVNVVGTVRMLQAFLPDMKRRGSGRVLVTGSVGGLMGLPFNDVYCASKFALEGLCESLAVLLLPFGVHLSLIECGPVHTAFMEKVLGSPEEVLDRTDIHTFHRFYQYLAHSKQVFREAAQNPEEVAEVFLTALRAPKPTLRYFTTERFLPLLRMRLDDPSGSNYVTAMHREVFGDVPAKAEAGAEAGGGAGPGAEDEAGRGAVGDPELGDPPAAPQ
Protocol: 17β-HSD1 production and isolation: Recombinant baculovirus was generated by the “Bac to Bac Expression System” (Invitrogen). Recombinant bacmid was transfected to Sd9 insect cells using “Cellfectin Reagent” (Invitrogen). 60 h later cells were harvested; the microsomal fraction was isolated as described by Puranen, T. J., Poutanen, M. H., Peltoketo, H. E., Vihko, P. T. and Vihko, R. K. (1994) Site-directed mutagenesis of the putative active site of human 17 β-hydroxysteroid dehydrogenase type 1. Biochem. J. 304: 289-293. Aliquots were stored frozen until determination of enzymatic activity.
Assay—Inhibition of recombinant human 17β-HSD1: Recombinant protein (1 μg/ml) was incubated in 20 mM KH2PO4 pH 7.4 with 30 nM estrone (including 800 000 cpm/ml of ^3H-estrone) and 1 mM NADPH for 30 min at RT, in the presence of the potential inhibitor at concentrations 1 μM or 0.1 μM. Inhibitor stock solutions were prepared in DMSO. Final concentration of DMSO was adjusted to 1% in all samples. The enzyme reaction was stopped by addition of 10% trichloroacetic acid (final concentration). Samples were centrifuged in a microtiter plate at 4000 rpm for 10 min. Supernatants were applied to reverse phase HPLC on a Waters Symmetry C18 column, equipped with a Waters Sentry Guard column. Isocratic HPLC runs were performed at RT at a flow rate of 1 ml/min in acetonitrile:water 48:52 as running solvent. Radioactivity was monitored in the eluate by a Scintillation Analyzer. Total radioactivity for estrone and estradiol were determined in each sample and percent conversion of estrone to estradiol was calculated according to the following formula:
as §1

## CN1CCN(c2ccc(NC(=O)CC[C@@H]3C/C(=N\O)[C@@]4(C)CCC5c6ccccc6CCC5C34)nc2)CC1 (stereo partly drawn) [Compound 86, 3-((13S,15R,E)-17-(hydroxyimino)-13-methyl-7,8,9,11,12,13,14,15,16,17-decahydro-6H-cyclopenta[a]phenanthren-15-yl)-N-(5-(4-methylpiperazin-1-yl)pyridin-2-yl)propanamide]
[1]
  Rabbit placenta inhibition % @100 nM: 51%
[2]
  inhibition at 1 µM: 6%
[3]
  inhibition at 0.1 µM: 61%

## COc1ccc(NC(=O)CC[C@@H]2C/C(=N\O)[C@@]3(C)CCC4c5ccc(F)cc5CCC4C23)nn1 (stereo partly drawn) [Compound 30, 3-((13S,15R,E)-3-fluoro-17-(hydroxyimino)-13-methyl-7,8,9,11,12,13,14,15,16,17-decahydro-6H-cyclopenta[a]phenanthren-15-yl)-N-(6-methoxypyridazin-3-yl)propanamide]
[1]
  Rabbit placenta inhibition % @100 nM: 79%
[2]
  inhibition at 1 µM: 3%
[3]
  inhibition at 0.1 µM: 40%

## CCN(CC)C(=O)CC[C@@H]1C/C(=N\O)[C@@]2(C)CCC3c4ccc(F)cc4CCC3C12 (stereo partly drawn) [Compound 40, N,N-diethyl-3-((13S,15R,E)-3-fluoro-17-(hydroxyimino)-13-methyl-7,8,9,11,12,13,14,15,16,17-decahydro-6H-cyclopenta[a]phenanthren-15-yl)propanamide]
[1]
  Rabbit placenta inhibition % @100 nM: 6%
[2]
  inhibition at 1 µM: 6%
[3]
  inhibition at 0.1 µM: 46%

## Cc1cc(NC(=O)CC[C@@H]2C/C(=N\O)[C@@]3(C)CCC4c5ccc(Cl)cc5CCC4C23)no1 (stereo partly drawn) [Compound 54, 3-((13S,15R,E)-3-chloro-17-(hydroxyimino)-13-methyl-7,8,9,11,12,13,14,15,16,17-decahydro-6H-cyclopenta[a]phenanthren-15-yl)-N-(5-methylisoxazol-3-yl)propanamide]
[1]
  Rabbit placenta inhibition % @100 nM: 10%
[2]
  inhibition at 1 µM: 0%
[3]
  inhibition at 0.1 µM: 47%

## C[C@]12CCC3c4cccc(F)c4CCC3C1[C@H](CCC(=O)N1CCOCC1)C/C2=N\O (stereo partly drawn) [Compound 136, 3-((13S,15R,E)-4-fluoro-17-(hydroxyimino)-13-methyl-7,8,9,11,12,13,14,15,16,17-decahydro-6H-cyclopenta[a]phenanthren-15-yl)-1-morpholinopropan-1-one]
[1]
  Rabbit placenta inhibition % @100 nM: 18%
[2]
  inhibition at 1 µM: -1%
[3]
  inhibition at 0.1 µM: 39%

## Cc1ccc(NC(=O)CC[C@@H]2C/C(=N\O)[C@@]3(C)CCC4c5ccc(Cl)cc5CCC4C23)nn1 (stereo partly drawn) [Compound 76, 3-((13S,15R,E)-3-chloro-17-(hydroxyimino)-13-methyl-7,8,9,11,12,13,14,15,16,17-decahydro-6H-cyclopenta[a]phenanthren-15-yl)-N-(6-methylpyridazin-3-yl)propanamide]
[1]
  Rabbit placenta inhibition % @100 nM: 56%
[2]
  inhibition at 1 µM: 4%
[3]
  inhibition at 0.1 µM: 33%

## C[C@]12CCC3c4ccc(Cl)cc4CCC3C1[C@H](CCC(=O)Nc1cccc(F)n1)C/C2=N\O (stereo partly drawn) [Compound 170, 3-((13S,15R,E)-3-chloro-17-(hydroxyimino)-13-methyl-7,8,9,11,12,13,14,15,16,17-decahydro-6H-cyclopenta[a]phenanthren-15-yl)-N-(6-fluoropyridin-2-yl)propanamide]
[1]
  Rabbit placenta inhibition % @100 nM: 13%
[2]
  inhibition at 1 µM: 12%
[3]
  inhibition at 0.1 µM: 34%

## C[C@]12CCC3c4ccc(Cl)cc4CCC3C1[C@H](CCC(=O)Nc1cccnn1)C/C2=N\O (stereo partly drawn) [Compound 44, 3-((13S,15R,E)-3-chloro-17-(hydroxyimino)-13-methyl-7,8,9,11,12,13,14,15,16,17-decahydro-6H-cyclopenta[a]phenanthren-15-yl)-N-(pyridazine-3-yl)propanamide]
[1]
  Rabbit placenta inhibition % @100 nM: 11%
[2]
  inhibition at 1 µM: 2%
[3]
  inhibition at 0.1 µM: 20%

## C[C@]12CCC3c4ccc(F)cc4CCC3C1[C@H](CCC(=O)Nc1ncccc1F)C/C2=N/O (stereo partly drawn) [Compound 150b, 3-((13S,15R,Z)-3-fluoro-17-(hydroxyimino)-13-methyl-7,8,9,11,12,13,14,15,16,17-decahydro-6H-cyclopenta[a]phenanthren-15-yl)-N-(3-fluoropyridin-2-yl)propanamide]
[1]
  Rabbit placenta inhibition % @100 nM: 3%
[2]
  inhibition at 1 µM: 6%
[3]
  inhibition at 0.1 µM: 30%

## Cc1ccnc(NC(=O)CC[C@@H]2C/C(=N\O)[C@@]3(C)CCC4c5ccc(Cl)cc5CCC4C23)c1 (stereo partly drawn) [Compound 70, 3-((13S,15R,E)-3-chloro-17-(hydroxyimino)-13-methyl-7,8,9,11,12,13,14,15,16,17-decahydro-6H-cyclopenta[a]phenanthren-15-yl)-N-(4-methylpyridin-2-yl)propanamide]
[1]
  Rabbit placenta inhibition % @100 nM: −7%
[2]
  inhibition at 1 µM: 4%
[3]
  inhibition at 0.1 µM: 81%

## CN(C)C(=O)c1ccc(NC(=O)CC[C@@H]2C/C(=N\O)[C@@]3(C)CCC4c5cccc(F)c5CCC4C23)nc1 (stereo partly drawn) [Compound 176, 6-(3-((13S,15R,E)-4-fluoro-17-(hydroxyimino)-13-methyl-7,8,9,11,12,13,14,15,16,17-decahydro-6H-cyclopenta[a]phenanthren-15-yl)propanamido)-N,N-dimethylnicotinamide]
[1]
  Rabbit placenta inhibition % @100 nM: 34%
[2]
  inhibition at 1 µM: 5%
[3]
  inhibition at 0.1 µM: 87%
